The target of assay [1] is T1, NAD-dependent protein deacetylase sirtuin-1 (Homo sapiens, UniProt Q96EB6).
T1 sequence (Q96EB6 whole entry): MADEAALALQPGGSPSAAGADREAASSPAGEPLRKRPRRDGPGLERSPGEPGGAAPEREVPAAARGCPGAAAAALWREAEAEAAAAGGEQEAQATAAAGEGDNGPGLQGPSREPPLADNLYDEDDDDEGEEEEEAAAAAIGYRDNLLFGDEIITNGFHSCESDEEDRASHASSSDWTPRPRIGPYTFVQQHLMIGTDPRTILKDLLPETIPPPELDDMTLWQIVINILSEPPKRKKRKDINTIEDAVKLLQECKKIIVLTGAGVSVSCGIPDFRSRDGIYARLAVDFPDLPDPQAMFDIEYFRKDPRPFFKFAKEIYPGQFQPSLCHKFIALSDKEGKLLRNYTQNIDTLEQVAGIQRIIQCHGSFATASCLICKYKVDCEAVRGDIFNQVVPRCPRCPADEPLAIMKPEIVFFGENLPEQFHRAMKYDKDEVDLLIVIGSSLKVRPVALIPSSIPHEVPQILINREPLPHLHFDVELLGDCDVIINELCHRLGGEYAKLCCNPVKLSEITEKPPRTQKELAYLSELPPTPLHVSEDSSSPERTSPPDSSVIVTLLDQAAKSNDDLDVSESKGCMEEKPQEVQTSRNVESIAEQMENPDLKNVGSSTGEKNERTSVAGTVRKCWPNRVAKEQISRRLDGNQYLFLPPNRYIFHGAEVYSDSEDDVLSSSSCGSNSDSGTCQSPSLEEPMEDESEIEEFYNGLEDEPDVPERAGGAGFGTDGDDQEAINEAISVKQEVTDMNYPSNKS
Put plainly: (§1) Inhibition of human SIRT1.

The target in assay [2] is T2, NAD-dependent protein deacetylase sirtuin-1 (Homo sapiens) (UniProt Q96EB6).
T2 sequence (whole entry): T1 sequence (Q96EB6 whole entry)
Put plainly: Inhibition of human SIRT1 at 2 mM.

Assay [3] deals with T2, NAD-dependent protein deacetylase sirtuin-1 (Homo sapiens). The assay is described as §1.

Active and inactive are the calls of the source. The calls are words filed in the database; no cut-off is given here.

Usually IC50 stands for the concentration needed to halve the response being measured. A low value points to greater potency. One may read the IC25 as the concentration at which the effect reaches the 25% level.

For `CSCC[C@H](NC(=O)[C@H](CC(C)C)NC(=O)[C@H](CCCC/N=C(/C)S)NC(=O)[C@H](CCCCN)NC(=O)[C@H](Cc1c[nH]cn1)NC(=O)[C@H](CCCN=C(N)N)NC(=O)[C@H](CO)NC(=O)[C@@H](NC(=O)[C@H](CO)NC(=O)[C@H](CCC(N)=O)NC(=O)CNC(=O)[C@H](CCCCN)NC(=O)[C@@H](N)CCCCN)[C@@H](C)O)C(=O)N[C@@H](Cc1ccccc1)C(=O)N[C@@H](CCCCN)C(=O)N[C@H](C(=O)N[C@@H](CCC(=O)O)C(=O)NCC(=O)O)[C@@H](C)O`, inhibition in assay [1] was half-maximal at 2 µM (IC50).
With `CC(=O)N[C@@H](CCCC/N=C(/C)S)C(=O)O`, the outcome in assay [2] was inactive.
As to `C/C(S)=N/CCCC[C@H](NC(=O)OCC1c2ccccc2-c2ccccc21)C(=O)O`, the IC25 in assay [3] turned out to be 2000 µM.

The values are drawn from ChEMBL document CHEMBL1138922, “Nepsilon-thioacetyl-lysine: a multi-facet functional probe for enzymatic protein lysine Nepsilon-deacetylation” (Bioorg Med Chem Lett, 2006).
